Data on one compound can be found in patent publication US6548540B2, “Method of treating cancer using dithiocarbamate derivatives” (Charlotte-Mecklenburg Hospital Authority, priority 1998, dated 2003).

SMILES strings stand for the structures.

One assay relates to M1619 melanoma cells. In words: MTT proliferation assay, M1619 melanoma. The class given is cell-based, human. The procedure: Human malignant cell lines were obtained from American Type Tissue Culture Collection (Rockville, Md.). Melanoma cells lines CRL 1585 and 1619 were cultured in RPMI 1640 (GIBCO-BRL, Life Technologies, Grand Island, N.Y.) with 10% FBS and passed with nonenzymatic Cell Dissociation Solution® (Sigma). The prostate adenocarcinoma cell line CRL 1435 (PC-3) was also cultured in RPMI 1640 with 10% FBS but passed with 0.05% trypsin and 0.53 mM EDTA. The squamous lung carcinoma NCI-H520 and the adenosquamous lung carcinoma NCI-H596 cell lines were grown in RPMI 1640 supplemented with 10% FBS, 10 mM HEPES and 1.0 mM sodium pyruvate and passed with trypsin/EDTA. The small cell lung carcinoma NCI-H82 was cultured as a suspension in RPMI 1640 with 10% FBS. All of the above were grown in a 37° C. humidified environment containing 5% CO2/air. The breast carcinoma cell line MDA-MB-453 was grown in a 37° C. humidified environment with free gas exchange with atmospheric air using Leibovitz's L-15 medium with 2 mM L-glutamine and 10% FBS and was passed with trypsin/EDTA.
The effect of disulfiram (0.15 to 5.0 μM), diethyldithiocarbamate (DDC, 1.0 μM) or PDTC (0.625 to 5.0 μM) on proliferation of malignant cell lines was studied in cultures stimulated with 10% FBS. Cell numbers were quantitated 24-72 hours later. In some experiments disulfiram or PDTC were added immediately after cells were plated. In other experiments, cells were plated and allowed to grow for 24-72 hours before fresh media with disulfiram or PDTC was added, and cell numbers were assayed 24-72 hours later.
Finally, a number of dithiocarbamate effects on cells have been attributed to increasing the intracellular levels of copper ions. To further probe the role of copper in mediating cytotoxicity from disulfiram, cells were cultured with or without addition of the impermeate Cu^2+ chelator bathocuprioinedisulfonic acid (BCPS, 100 μM) added to medium to sequester Cu^2+ in the extracellular compartment. Cells were also treated 12 hours with various concentration of disulfiram (0.625 to 5.0 μM) and intracellular copper levels were measured as outlined below.
Proliferation of cultured cells was quantitated using a previously reported calorimetric method based upon metabolic reduction of the soluble yellow tetrazolium dye 3-[4,5-dimethylthiazol]-2yl-2,5-diphenyl tetrazolium bromide (MTT) to its insoluble purple formazan by the action of mitochondrial succinyl dehydrogenase (See, e.g., S. J. Hirst, et al., “Quantifying proliferation of cultured human and rabbit airway smooth muscle in response to serum and platelet derived growth factor,” Am. J. Respir. Cell Mol. Biol. 7:574-581 (1992); R. Dashtaki, et al. R., supra; S. S. Brar, et al., “Requirement for reactive oxygen species in serum-induced and platelet-derived growth factor-induced growth of airway smooth muscle,” J. Biol. Chem. 274:20017-20026 (1999)). This assay empirically distinguishes between dead and living cells. For proliferation studies, cells were seeded into 24-well uncoated plastic plates (Costar) at 50,000 cells per well and cultured with respective media and mitogens.

The next assay has as its system p53. In words: Immunoblot for p53. It counts as cell-based, human. The settings on record: cell lines studied; data not shown. The procedure: Cells were lysed and proteins were isolated and quantitated by immunoassay as previously detailed using 2 μg/ml of primary rabbit polyclonal antibodies against human bcl-2, p53, p21^WAF1/CiP1, cyclin A and cyclin B1, and peroxidase-labeled donkey polyclonal anti-rabbit IgG. Cells were placed on ice, washed twice with cold DPBS, scraped into 0.5 ml boiling buffer (10% [vol/vol] glycerol and 2% [wt/vol] sodium dodecyl sulfate [SDS] in 83 mM Tris, pH 6.8) and sheared by four passages through a pipette. Aliquots were removed for protein determination, using the BCA protein assay (Pierce). After 10% β-mercaptoethanol and 0.05% bromophenol blue were added, lysates were boiled for 5 min and stored at −80° C. until immunoblotting was performed. Proteins in defrosted samples were separated by SDS-polyacrylamide gel electrophoresis on 12% polyacrylamide gels (15 μg protein/lane) and electrotransferred to 0.45 μm Hybond ECL nitrocellulose membranes (Amersham Life Sciences) using the wet transblot method in transfer buffer (0.025 M Tris, 0.192 M glycine, 2.6 mM SDS, and 20%[vol/vol] methanol; pH 8.8) at 100 volts for 1 hour. […] Immunoblots were rinsed again as above and detected via an enhanced chemiluminescence method (ECL Western blotting detection system, Amersham Life Science, Buckinghamshire, England). […]
(A western blot detects proteins with antibodies after separation by electrophoresis.)

Broadly, the inhibition is the change of the read-out against control, counted positive when it falls. Consider `CCN(CC)C(=S)SSC(=S)N(CC)CC` [Disulfiram, tetraethylthiuram disulfide], for which, in the assay on M1619 melanoma cells (Homo sapiens, M1619, grown 24 hours, additional 24 hours, no added CuSO4, read-out: 50% inhibitory (IC50) concentration), the IC50 amounted to 625 nM. Moreover, the inhibition at 0.625 µM in the assay with M1619 melanoma cells (Homo sapiens, disulfiram 0.625 μM, treatment after 24 hours of growth, read-out: Mean Percent Inhibition of Growth) amounted to 59 ± 4%. The inhibition at 1.25 µM in the assay with M1619 melanoma cells (Homo sapiens, disulfiram 1.25 μM, treatment after 24 hours of growth, read-out: Mean Percent Inhibition of Growth) worked out at 35 ± 4%. The inhibition at 2.5 µM with M1619 melanoma cells (Homo sapiens, disulfiram 2.5 μM, treatment after 24 hours of growth, read-out: Mean Percent Inhibition of Growth) was 39 ± 3%. Also, in the assay with M1619 melanoma cells (Homo sapiens, disulfiram 5.0 μM, treatment after 24 hours of growth, read-out: Mean Percent Inhibition of Growth), the inhibition at 5 µM amounted to 37 ± 4%. Moreover, in the assay on M1619 melanoma cells (M1619, with 0.2 μM CuSO4 added to medium, grown 24 hours, additional 24 hours), the “100% inhibitory (IC100) concentration” value came to 0.625 µM. Moreover, in the assay with M1619 melanoma cells (added at plating, 24 hours), the “growth in vitro of M1619 melanoma” value was “potent inhibitor of growth”. The “A540 of MTT Formazan” value with M1619 melanoma cells (disulfiram 0.6 μM + carmustine 1 μM, 24 hours) is on record as 0.042 ± 0.003^C; with M1619 melanoma cells (disulfiram 0.6 μM + carmustine 10 μM, 24 hours) it was 0.025 ± 0.002^C; in the assay with M1619 melanoma cells (disulfiram 0.6 μM + carmustine 100 μM, 24 hours), 0.030 ± 0.023; with M1619 melanoma cells (disulfiram 0.6 μM + carmustine 1,000 μM, 24 hours), 0.004 ± 0.000; in the assay on M1619 melanoma cells (disulfiram 2.5 μM + cisplatin 1 ng/ml, added after 48 hours, additional 24 hours) it was 1.369 ± 0.033^B; in the assay on M1619 melanoma cells (disulfiram 2.5 μM + cisplatin 10 ng/ml, added after 48 hours, additional 24 hours) it was 1.221 ± 0.028. Also, the “A540 of MTT Formazan” value with M1619 melanoma cells (disulfiram 2.5 μM + cisplatin 100 ng/ml, added after 48 hours, additional 24 hours) is reported as 1.183 ± 0.038^A; in the assay with M1619 melanoma cells (disulfiram 2.5 μM + cisplatin 1,000 ng/ml, added after 48 hours, additional 24 hours), 0.921 ± 0.027^A. Besides, in the assay with p53, the “expression of p53” value was “no consistent effect”.
